Results reported in ChEMBL document CHEMBL1201862, “PubChem BioAssay data set” (2004).
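Each compound was tested at five concentrations against cells in 96-well plates for 48 hours. The concentration for 50% growth inhibition is given as GI50.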 Active and inactive are the calls of the source. No stated cut-off is given here; in the data, active = GI50 up to about 1.1 µM and inactive = higher.

Assays:
Test in all cases: NCI anticancer screen, dose series, 48 h
[1] = test system: A549
[2] = test system: SK-MEL-28
[3] = test system: OVCAR-3
[4] = test system: RPMI-8226
[5] = test system: HCT-116
[6] = test system: SR
[7] = test system: SK-MEL-2
[8] = test system: UACC-62
[9] = test system: CCRF-CEM
[10] = test system: HCT-15
[11] = test system: A498
[12] = test system: ACHN
[13] = test system: NCI-H226
[14] = test system: HOP-62
[15] = test system: K562
[16] = test system: NCI-H460
[17] = test system: SW-620
[18] = test system: COLO 205
[19] = test system: MCF7

CC1(C)OCN(c2ccc(S(N)(=O)=O)cc2)Cn2c1nc1ccccc12
GI50 [1]: > 100 µM (inactive)
GI50 [2]: > 100 µM (inactive)
GI50 [3]: > 100 µM (inactive)
GI50 [4]: > 100 µM (inactive)
GI50 [5]: > 100 µM (inactive)
GI50 [6]: > 100 µM (inactive)
GI50 [7]: > 100 µM (inactive)
GI50 [8]: > 100 µM (inactive)
GI50 [9]: > 100 µM (inactive)
GI50 [10]: > 100 µM
GI50 [11]: > 100 µM (inactive)
GI50 [12]: > 100 µM (inactive)
GI50 [13]: > 100 µM (inactive)
GI50 [14]: > 100 µM (inactive)
GI50 [15]: > 100 µM (inactive)
GI50 [16]: > 100 µM (inactive)
GI50 [17]: > 100 µM (inactive)
GI50 [18]: > 100 µM (inactive)

CN(C)c1ccc(C(=C(c2ccc(N(C)C)cc2)c2ccc(N(C)C)cc2)c2ccc(N(C)C)cc2)cc1
GI50 [1]: 16.3 µM (inactive)
GI50 [2]: 14.3 µM (inactive)
GI50 [3]: 0.31 µM (active)
GI50 [4]: 7 µM (inactive)
GI50 [5]: 13.4 µM (inactive)
GI50 [6]: 9.04 µM (inactive)
GI50 [7]: 12.1 µM (inactive)
GI50 [8]: 18.8 µM (inactive)
GI50 [9]: 16.6 µM (inactive)
GI50 [10]: 14.4 µM
GI50 [11]: 18.6 µM (inactive)
GI50 [12]: 11.5 µM (inactive)
GI50 [13]: 19.8 µM (inactive)
GI50 [14]: 39.5 µM (inactive)
GI50 [15]: 8.09 µM (inactive)
GI50 [16]: 15.8 µM (inactive)
GI50 [17]: 1.87 µM (inactive)
GI50 [18]: 0.568 µM (active)

Nn1c(CCCl)nc2c(Br)cc(Br)cc2c1=O
GI50 [1]: 43.7 µM (inactive)
GI50 [2]: 37.2 µM (inactive)
GI50 [3]: 9.62 µM (inactive)
GI50 [4]: 24.4 µM (inactive)
GI50 [5]: 25.3 µM (inactive)
GI50 [6]: 20.3 µM (inactive)
GI50 [7]: 33.1 µM (inactive)
GI50 [8]: 31.9 µM (inactive)
GI50 [9]: 8.2 µM (inactive)
GI50 [10]: 22.1 µM
GI50 [11]: 35.7 µM (inactive)
GI50 [12]: 22.9 µM (inactive)
GI50 [13]: 28.5 µM (inactive)
GI50 [14]: 26.8 µM (inactive)
GI50 [15]: 13.2 µM (inactive)
GI50 [16]: 25.3 µM (inactive)
GI50 [17]: 20.5 µM (inactive)
GI50 [18]: 23.9 µM (inactive)

[N-]=[N+]=Nc1ccc2c(c1)Sc1ccccc1N2CCCCN1CCN(Cc2ccc(C(=O)c3ccc(CSCC(N)C(=O)O)cc3)cc2)CC1 (configuration not stated)
GI50 [2]: 2.01 µM (inactive)
GI50 [3]: 26.9 µM (inactive)
GI50 [4]: 13.2 µM (inactive)
GI50 [5]: 15.2 µM (inactive)
GI50 [7]: 19.3 µM (inactive)
GI50 [8]: 11.3 µM (inactive)
GI50 [9]: 14.3 µM (inactive)
GI50 [10]: 14.2 µM
GI50 [11]: 18.5 µM (inactive)
GI50 [12]: 31.6 µM (inactive)
GI50 [13]: 13.2 µM (inactive)
GI50 [14]: 23.9 µM (inactive)
GI50 [15]: 12.5 µM (inactive)
GI50 [16]: 34.8 µM (inactive)
GI50 [17]: 1.87 µM (inactive)
GI50 [19]: 16.4 µM (inactive)
GI50 [18]: 13.6 µM (inactive)

CN/N=C(\C(=O)Nc1ccc([N+](=O)[O-])cc1[N+](=O)[O-])C1NC(=O)NC1=O (configuration not stated)
GI50 [1]: > 100 µM (inactive)
GI50 [2]: > 100 µM (inactive)
GI50 [3]: > 100 µM (inactive)
GI50 [4]: > 100 µM (inactive)
GI50 [5]: > 100 µM (inactive)
GI50 [6]: > 100 µM (inactive)
GI50 [7]: > 100 µM (inactive)
GI50 [8]: > 100 µM (inactive)
GI50 [9]: > 100 µM (inactive)
GI50 [10]: > 100 µM
GI50 [11]: > 100 µM (inactive)
GI50 [12]: > 100 µM (inactive)
GI50 [13]: > 100 µM (inactive)
GI50 [14]: > 100 µM (inactive)
GI50 [15]: > 100 µM (inactive)
GI50 [16]: > 100 µM (inactive)
GI50 [17]: 40.3 µM (inactive)
GI50 [18]: > 100 µM (inactive)

C=C1C(=O)OC2CC3(C)C=CC(=O)C(=C)C3CC12 (configuration not stated)
GI50 [1]: 5.62 µM (inactive)
GI50 [2]: 1.77 µM (inactive)
GI50 [3]: 2.32 µM (inactive)
GI50 [4]: 0.589 µM (active)
GI50 [5]: 1.28 µM (inactive)
GI50 [6]: 0.938 µM (active)
GI50 [7]: 1.67 µM (inactive)
GI50 [8]: 1.5 µM (inactive)
GI50 [9]: 0.317 µM (active)
GI50 [10]: 1.71 µM
GI50 [11]: 7.46 µM (inactive)
GI50 [12]: 1.72 µM (inactive)
GI50 [13]: 12.1 µM (inactive)
GI50 [14]: 14.7 µM (inactive)
GI50 [15]: 1.71 µM (inactive)
GI50 [16]: 2.59 µM (inactive)
GI50 [17]: 1.04 µM (active)
GI50 [18]: 1.63 µM (inactive)
